{"source": "paper PMC6213981", "about": "“Crystal structures and kinetics of N-acetylneuraminate lyase from Fusobacterium nucleatum” (Acta Crystallographica. Section F, Structural Biology …, 2018)", "molecular_target": "T1, FnNanA (Fusobacterium nucleatum, UniProt Q8RDN6)", "T1 construct": "gene nanA; pET300/NT-DEST, synthetic DNA, E. coli BL21 (DE3); tetramer", "T1 sequence (Q8RDN6 1-290)": "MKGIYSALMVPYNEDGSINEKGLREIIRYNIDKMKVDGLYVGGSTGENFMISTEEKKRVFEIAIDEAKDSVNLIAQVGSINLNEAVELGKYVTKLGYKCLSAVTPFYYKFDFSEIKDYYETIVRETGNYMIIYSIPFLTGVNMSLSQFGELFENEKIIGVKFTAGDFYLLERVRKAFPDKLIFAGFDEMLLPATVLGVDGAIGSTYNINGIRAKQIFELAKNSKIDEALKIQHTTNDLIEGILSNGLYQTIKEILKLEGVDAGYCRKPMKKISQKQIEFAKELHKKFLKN", "assay": "X-ray crystal structure, […] Å", "type": "binding", "conditions": "covalent; Schiff base with Lys161 in active site; crystallised at pH 9.5, 277 K", "data": [{"smiles": "CC(=O)C(=O)O", "note": "[pyruvate]", "values": [{"measurement": "X-ray crystal structure, 1.76 Å", "value": "N∊ atom of Lys161 is conjugated as a Schiff base to the C2 atom of pyruvate"}]}]}
